Measured values from US20140037642A1, “METHODS AND COMPOSITIONS RELATING TO INHIBITION OF IGF-1R” (AMGEN INC., priority 2011, published 2014).
Where “and” joins values, the source holds several entries; their conditions need not be identical. Identical values can stand only once. Like-named read-outs stand apart in the source and are kept apart here.

What was measured:
[1] = system: metastatic pancreatic cancer patients; assay: Overall survival in baseline circulating biomarker subgroups of the phase 2 study; assay type: in vivo, human; parameters: Median OS: unit not given here
Excerpt: To establish the relationship between levels of these baseline markers and overall survival, a Cox proportional hazard model was used to calculate hazard ratios (HR) using normalized log transformed marker concentrations. This analysis tests the risk of death associated with a unit increase in the normalized log baseline biomarker and this risk is expressed as a hazard ratio. Because of the small sample size, it is difficult to dissect prognostic associations from relationships that are modified by treatment with ganitumab relative to placebo, i.e., predictive. This is because the addition of treatment effect adds a variable to the analysis that compromises the power of the test masking significant predictive relationships that may exist. However even a prognostic relationship identified in this analysis is important because it informs the hypothesized relationship between circulating bioavailable ligands and the adaptation of the tumor to IGF-1R dependent progression, and in turn sensitivity to inhibitors that block IGF-1R or downstream signaling pathways.
This allows a direct test of the predictive value of using these markers in a dichotomized way to predict OS in pancreatic cancer patients that are treated with inhibitors of IGF-1R.
To represent these relationships Kaplan-Maier plots were generated that show the OS for the high and low subgroups by plotting the fraction of patients in each sub-group that survive against time.

[2] = system: metastatic pancreatic cancer patients; assay: Placebo-controlled, randomized phase 2 study plus gemcitabine; assay type: in vivo, human; details: for 6-Month OS Rate (95% CI) / 12-Month OS Rate (95% CI) / Median OS, Months (95% CI) / Median PFS, Months (95% CI): conatumumab 10 mg/kg Q2W or ganitumab 12 mg/kg Q2W; for Stratified HR (95% CI), OS / Stratified HR (95% CI), PFS: versus placebo plus gemcitabine
Procedure: The primary endpoint was six month overall survival rate.
Key inclusion criteria were histologically or cytologically documented metastatic adenocarcinoma of the pancreas, age eighteen years or older, ECOG PS 0 or 1, adequate hematologic, hepatic, renal, and coagulation function, amylase and lipase≦2.0×ULN, adequately controlled type 1 or 2 diabetes (amended during protocol to fasting blood glucose<[…] only), fasting blood glucose≦[…], HbAlc<8%, and written informed consent.
Key exclusion criteria were uncontrolled cardiac disease and prior chemotherapy or radiation in the adjuvant or metastatic setting.

[3] = system: metastatic pancreatic cancer patients; details: for OS, HR (95% CI) for one unit increment in logAUCss / PFS, HR (95% CI) for one unit increment in logAUCss: univariate Cox model
Procedure: Multivariate analysis was performed to evaluate the effect of exposure on OS and PFS adjusting for potential confounding factors using Cox proportional hazard models with a forward selection technique. All baseline factors were initial candidates in the forward selection model. Only the most statistically significant variables were added to the final model after the forward selection process.
The effect of exposure on the incidence of selected adverse events (hearing and vestibular disorders, hepatic disorders, hyperglycemia, infusion reaction, neutropenia, rash and skin-related toxicity, thrombocytopenia, and venous embolic and thrombotic events) was summarized with descriptive statistics.
The effect of exposure on changes in selected laboratory values (aspartate transaminase, alanine transaminase, fasting glucose, total neutrophils, and platelets) was assessed by linear regression.

non-CRC tumors = details: Study Drug 6 mg/kg + panitumumab 6 mg/kg
colorectal cancer (CRC) = details: Study Drug 6 mg/kg + panitumumab 6 mg/kg
Excerpt: Another study was done in subjects with colorectal cancer (CRC).

[4] = patients with measurable disease at baseline, plus gemcitabine
[5] = plus gemcitabine, listed as ganitumab
[6] = Ganitumab and Placebo (logAUCss = 0)
[7] = multivariate Cox model, ganitumab-treated arm
[8] = Subject #1, Nerve Sheath, 3 mg/Kg
[9] = Subject #4, Colorectal, 10 mg/Kg
[10] = Subject #8, diagnosis Unknown, 1 mg/Kg
[11] = Subject #10, Adenoid R eye, 20 mg/Kg
[12] = Subject #11, Carcinoid, 3 mg/Kg
[13] = Subject #11, Carcinoid, 3 mg/Kg cohort
[14] = twelve subjects, 1 to 20 mg/kg, RECIST

Procedure for tumors in human subjects: Each subject was assigned to one of six dosing cohorts. […] The subjects also received individualized palliative care, as appropriate, to reduce the severity of their symptoms.
Response to treatment was assessed using the Response Evaluation Criteria in Solid Tumors (RECIST) criteria as described in Therasse et al. 2000, J Natl Cancer Inst. […] Briefly, prior to administration of the first dose, each subject was given a computerized tomography (CT) scan to determine the length of the largest measurable tumor along its longest diameter (“Baseline TM (cm)” in Table 9). CT scans were used to measure the same tumors along the same diameter at certain points after initiation of treatment (“Day X Tumor (cm)” in Table 9). Each such measurement was compared to the baseline tumor measurement for the same subject to calculate the percent increase or decrease in tumor size.

Ganitumab
difference in median OS, ganitumab treatment arm versus placebo arm ([1]; Free IGF-1 high subgroup): 7.59 months
Median OS ([1]; IGF-2 High (>=median)): 368
OS HR, treatment vs placebo ([1]; IGF-2 High (>=median)): 0.24
Median OS ([1]; IGF-2 Low (<median)): 217.5
OS HR, treatment vs placebo ([1]; IGF-2 Low (<median)): 0.95
Median OS ([1]; IGF-BP1 High (>=median)): 170
OS HR, treatment vs placebo ([1]; IGF-BP1 High (>=median)): 0.5
OS HR, treatment vs placebo ([1]; IGF-BP1 Low (<median)): 0.41
Median OS ([1]; IGF-BP2 High (>=median)): 165
OS HR, treatment vs placebo ([1]; IGF-BP2 High (>=median)): 0.69
Median OS ([1]; IGF-BP2 Low (<median)): 487
OS HR, treatment vs placebo ([1]; IGF-BP2 Low (<median)): 0.19
Median OS ([1]; IGF-BP3 High (>=median)): 487
OS HR, treatment vs placebo ([1]; IGF-BP3 High (>=median)): 0.28
Median OS ([1]; IGF-BP3 Low (<median)): 168
OS HR, treatment vs placebo ([1]; IGF-BP3 Low (<median)): 0.94
Median OS ([1]; IGF-BP4 High (>=median)): 368
OS HR, treatment vs placebo ([1]; IGF-BP4 High (>=median)): 0.39
Median OS ([1]; IGF-BP4 Low (<median)): 174.5
OS HR, treatment vs placebo ([1]; IGF-BP4 Low (<median)): 0.63
Median OS ([1]; Total IGF-1 High (>=median)): 487
OS HR, treatment vs placebo ([1]; Total IGF-1 High (>=median)): 0.25
Median OS ([1]; Total IGF-1 Low (<median)): 142
OS HR, treatment vs placebo ([1]; Total IGF-1 Low (<median)): 0.59
Best Overall Response: Confirmed CR - n (%) [2, 4]: 0 (0) n (%)
Best Overall Response: Confirmed PR - n (%) [2, 4]: 4 (10) n (%)
Best Overall Response: PD - n (%) [2, 4]: 13 (33) n (%)
Best Overall Response: SD (Includes Unconfirmed PR) - n (%) [2, 4]: 16 (41) n (%)
Best Overall Response: Unconfirmed PR - n (%) [2, 4]: 0 (0) n (%)
Best Overall Response: Unknown - n (%) [2, 4]: 6 (15) n (%)
rate of SD+PR ([2]; plus gemcitabine): 51%
6-Month OS Rate (95% CI) ([2]; plus gemcitabine): 57% (41, 70)
12-Month OS Rate (95% CI) ([2]; plus gemcitabine): 39% (25, 54)
Median OS, Months (95% CI) ([2]; plus gemcitabine): 8.7 (5.3, 12.2) Months
Median PFS, Months (95% CI) ([2]; plus gemcitabine): 5.1 (2.8, 5.8) Months
6-Month OS Rate (95% CI) [2, 5]: 57%
12-Month OS Rate (95% CI) [2, 5]: 39%
Median OS, Months (95% CI) [2, 5]: 8.7 Months
Median PFS, Months (95% CI) [2, 5]: 5.1 Months
Stratified HR (95% CI), OS [2]: 0.67 (0.41, 1.12)
Stratified HR (95% CI), PFS [2]: 0.65 (0.41, 1.04)
Stratified HR (95% CI), OS ([2]; listed as ganitumab): 0.67
Stratified HR (95% CI), PFS ([2]; listed as ganitumab): 0.65
OS, HR (95% CI) for one unit increment in logAUCss ([3]; Ganitumab Only): 0.0421 (0.0089, 0.1983)
PFS, HR (95% CI) for one unit increment in logAUCss ([3]; Ganitumab Only): 0.0611 (0.0160, 0.2327)
OS, HR (95% CI) for one unit increment in logAUCss [3, 6]: 0.8288 (0.6978, 0.9845)
PFS, HR (95% CI) for one unit increment in logAUCss [3, 6]: 0.8322 (0.7111, 0.9741)
Log AUCss HR, effect on Overall Survival [3, 7]: 0.0842
Log AUCss HR, effect on Progression Free Survival [3, 7]: 0.1355
Log AUCss Parameter Estimate, effect on Overall Survival [3, 7]: −2.4742
Log AUCss Parameter Estimate, effect on Progression Free Survival [3, 7]: −1.9986
best response (WHO criteria) (non-CRC tumors; subject with a GE Junction tumor): stable disease
best response (WHO criteria) (non-CRC tumors; subject with a pancreatic tumor): stable disease
best response (WHO criteria) (non-CRC tumors; subject with a thyroid tumor): progressive disease
time to significant symptomatic relief after the first dose (tumors in human subjects; CR subject, Ewing's sarcoma, 12 mg/kg): two
response according to RECIST at day 434 (tumors in human subjects; CR subject, Ewing's sarcoma, 12 mg/kg at 14 day intervals): CR (100% reduction in tumor dimension)
PET scan, uptake of labeled glucose by tumor (tumors in human subjects; CR subject, Ewing's sarcoma, 12 mg/kg, day 50): no detectable uptake of labeled glucose
decrease in tumor size from baseline (RECIST) (tumors in human subjects; CR subject, Ewing's sarcoma, 12 mg/kg, day 50, CT scan): 78%
maximum RECIST tumor dimension reduction (tumors in human subjects; PR subject, mid gut carcinoid tumor, 3 mg/kg at 14 day intervals): 63%
RECIST tumor dimension decrease (tumors in human subjects; PR subject, mid gut carcinoid tumor, 3 mg/kg, after 33 weeks in the trial): 48%
RECIST tumor dimension (tumors in human subjects; PR subject, mid gut carcinoid tumor, 3 mg/kg, after 33 weeks in the trial, baseline 13.1 cm): 6.8 cm
Day 50 Tumor (cm) (tumors in human subjects; [8]): 1.4 cm
Day 50 Tumor, percent change vs baseline (tumors in human subjects; [8]): (+27%)
Day 50 Tumor (cm) (tumors in human subjects; Subject #2, Prostate, 10 mg/Kg): 18.8 cm
Day 50 Tumor, percent change vs baseline (tumors in human subjects; Subject #2, Prostate, 10 mg/Kg): (+21%)
Day 50 Tumor (cm) (tumors in human subjects; Subject #3, Ovarian, 20 mg/Kg): 18.6 cm
Day 50 Tumor, percent change vs baseline (tumors in human subjects; Subject #3, Ovarian, 20 mg/Kg): (+17%)
Day 50 Tumor (cm) (tumors in human subjects; [9]): 45.3 cm
Day 50 Tumor, percent change vs baseline (tumors in human subjects; [9]): (+7%)
Day 50 Tumor (cm) (tumors in human subjects; Subject #5, Thymus, 1 mg/Kg): 10.4 cm
Day 50 Tumor, percent change vs baseline (tumors in human subjects; Subject #5, Thymus, 1 mg/Kg): (+4%)
Day 50 Tumor (cm) (tumors in human subjects; Subject #6, Melanoma, 10 mg/Kg): 28.4 cm
Day 50 Tumor, percent change vs baseline (tumors in human subjects; Subject #6, Melanoma, 10 mg/Kg): (+1%)
Day 50 Tumor (cm) (tumors in human subjects; Subject #7, Adenoid, 1 mg/Kg): 30.9 cm
Day 50 Tumor, percent change vs baseline (tumors in human subjects; Subject #7, Adenoid, 1 mg/Kg): (−1%)
Day 50 Tumor (cm) (tumors in human subjects; [10]): 18.2 cm
Day 50 Tumor, percent change vs baseline (tumors in human subjects; [10]): (−2%)
Day 106 Tumor (cm) (tumors in human subjects; [10]): 18.9 cm
Day 106 Tumor, percent change vs baseline (tumors in human subjects; [10]): (+2%)
Day 162 Tumor (cm) (tumors in human subjects; [10]): 23.2 cm
Day 162 Tumor, percent change vs baseline (tumors in human subjects; [10]): (+25%)
Day 50 Tumor (cm) (tumors in human subjects; Subject #9, Breast, 20 mg/Kg): 4.7 cm
Day 50 Tumor, percent change vs baseline (tumors in human subjects; Subject #9, Breast, 20 mg/Kg): (−2%)
Day 50 Tumor (cm) (tumors in human subjects; [11]): 35.2 cm
Day 50 Tumor, percent change vs baseline (tumors in human subjects; [11]): (−9%)
Day 50 Tumor (cm) (tumors in human subjects; [12]): 14 cm
Day 50 Tumor, percent change vs baseline (tumors in human subjects; [12]): (+7%)
Day 106 Tumor (cm) (tumors in human subjects; [12]): 11 cm
Day 106 Tumor, percent change vs baseline (tumors in human subjects; [12]): (−16%)
Day 169 Tumor (cm) (tumors in human subjects; [12]): 10.6 cm
Day 169 Tumor, percent change vs baseline (tumors in human subjects; [12]): (−19%)
Day 225 Tumor (cm) (tumors in human subjects; [12]): 8.4 cm
Day 225 Tumor, percent change vs baseline (tumors in human subjects; [12]): (−36%)
Day 281 Tumor (cm) (tumors in human subjects; [13]): 8.2 cm
Day 281 Tumor, percent change vs baseline (tumors in human subjects; [13]): (−37%)
Day 338 Tumor (cm) (tumors in human subjects; [13]): 6.8 cm
Day 338 Tumor, percent change vs baseline (tumors in human subjects; [13]): (−48%)
Day 50 Tumor (cm) (tumors in human subjects; Subject #12, Ewing's, 12 mg/Kg): 2.2 cm
Day 50 Tumor, percent change vs baseline (tumors in human subjects; Subject #12, Ewing's, 12 mg/Kg): (−78%)
Day 85 Tumor, percent change vs baseline (tumors in human subjects; Subject #12, Ewing's, 12 mg/Kg): (−100%)
Day 85 Tumor (cm) (tumors in human subjects; Subject #12, Ewing's, 12 mg/Kg, listed as Study Drug): 0 cm and 0.0 cm
number of subjects with a reduction in tumor size of at least 30% (tumors in human subjects; [14]): two
number of subjects with best response progressive disease (PD) (tumors in human subjects; [14]): two
Wk 8 change (RECIST) (colorectal cancer (CRC)): −27%
Wk 8 change (WHO) (colorectal cancer (CRC); CT): −39%
